Laboratory results from article PMC6152131, “Pharmacokinetic Study of Biotransformation Products from an Anxiolytic Fraction of Tilia americana” (Molecules : A Journal of Synthetic Chemistry and Natural …, 2017).
Read-outs that look alike come from different tables or passages of the source.

Columns and labels:
[1] = Plasma concentration after a single oral dose of the anxiolytic fraction (HPLC); type: in vivo, ICR mice; details: oral 200 mg/kg anxiolytic fraction, immediately after administration and over 24 h
Protocol: Eleven groups of ten animals each were randomly formed. All animals were orally administered with 200 mg/kg of the active fraction. Animals were anaesthetized with ether, and blood samples were obtained from the retroorbital sinus with a heparinized capillary, each group was examined at different times (0, 5, 10, 15, 30, 60, 120, 240, 480, 720, and 1440 min) after the active fraction was administered. […] Then the plasma samples were frozen and lyophilized. The dry plasma was subsequently used to extract and measure the concentration of the flavonoids and biotransformation products.
(§1) Plasma dried pulverized samples were extracted with methanol (HPLC grade, Merck). The extracts were filtered with Teflon membrane dimensions 0.45 μm by 13 mm (Millex®-LCR); 20 μL of each filtered sample was injected into the HPLC equipment. The measurements were performed in a (Waters corporation, Milford, CT, USA) 2695 HPLC with a diode array detector (Waters 2996) and processed with the Empower Pro 1.0 software. A Chromolith Performance® RP-18e 100 × 4.6 mm (Merck KGaA, Darmstadt, Germany) was used. The mobile phase consisted of a mixture of acetonitrile and water with the proportion 55:45 and a flow rate of 1 mL/min. The concentrations of the flavonoids and the biotransformation products were obtained by comparison with a pre-built calibration curve at λ = 220 nm.
To evaluate the suitability of the assay for the pharmacokinetic studies, 200 mg/kg of the active fraction was orally administered to the animals. Ten animals were used in each group at different times (0, 5, 10, 15, 30, 60, 120, 240, 480, 720, and 1440 min). Pharmacokinetic calculations were performed using the observed data. All data was subsequently processed using the PKSolver add-in program for Microsoft Excel written in Visual Basic for Applications. All values obtained were expressed in mean ± standard deviation.

[2] = design: method as in PMID 11151743; details: glucoronides and sulphates of quercetin found in plasma; cited from earlier work
[3] = Stability of flavonoids and biotransformation products in mouse plasma under different handling conditions; type: in vitro ADME, mice
Protocol: as §1
[…] The investigation enclosed here expected manipulation conditions during all the sample storage and process periods, which included the stability data from the freeze/thaw, bench-top, autosampler, and long–term stability tests.
For all stability studies, fresh QC samples were evaluated by using a freshly prepared standard curve for the measurements. The concentrations obtained from all the stability studies were compared with the fresh QC samples, and the percentage concentration deviation was calculated. The analytes were considered stable in the mouse plasma when the concentration difference between the freshly prepared samples and the stability samples was less than 15%.

[4] = storage stability, high nominal conc.
[5] = storage stability, high nominal conc. (7.00; 44.37; 4.50; 31.25 µg/mL), n = 6
[6] = storage stability, low nominal conc.
[7] = storage stability, low nominal conc. (1.75; 11.02; 1.12; 1.95 µg/mL), n = 6
[8] = storage stability, medium nominal conc.

SMILES: C[C@@H]1O[C@@H](OC[C@H]2O[C@@H](Oc3c(-c4ccc(O)c(O)c4)oc4cc(O)cc(O)c4c3=O)[C@H](O)[C@@H](O)[C@@H]2O)[C@H](O)[C@H](O)[C@H]1O [Rutin, rutin]
- flavonoids found in the plasma after oral administration [1]: not found
- absorption into the vascular space after oral administration [2]: not absorbed
- Observed Conc. 0 h [3]: 3.39 ± 0.16 µg/mL
- Observed Conc. 8 h [3]: 3.67 ± 0.30 µg/mL
- Observed Conc. 24 h [3]: 3.38 ± 0.27 µg/mL
- Observed Conc. Autosampler (4 °C; 8 h) [3]: 3.44 ± 0.15 µg/mL
- Observed Conc. Long-term (−70 °C; 1 month) [3]: 3.51 ± 0.28 µg/mL
- Accuracy Bias 0 h ([3]; room temperature (25 °C), 0 h, high nominal conc.): −1.99%
- Observed Conc. 0 h ([3]; room temperature (25 °C), 0 h, high nominal conc. (rutin 7.00; quercetin glucoside, quercitrin, tiliroside 44.37; kaempferol 4.50; m-HPAA, p-HPAA, DOPAC 31.25 µg/mL), n = 6): 7.27 ± 0.41 µg/mL
- Accuracy Bias 0 h ([3]; room temperature (25 °C), 0 h, low nominal conc.): 5.76%
- Observed Conc. 0 h ([3]; room temperature (25 °C), 0 h, low nominal conc. (rutin 1.75; quercetin glucoside, quercitrin, tiliroside 11.02; kaempferol 1.12; m-HPAA, p-HPAA, DOPAC 1.95 µg/mL), n = 6): 1.74 ± 0.11 µg/mL
- Accuracy Bias 0 h ([3]; room temperature (25 °C), 0 h, medium nominal conc.): 3.17%
- Accuracy Bias 8 h ([3]; room temperature (25 °C), 8 h, high nominal conc.): −2.45%
- Observed Conc. 8 h ([3]; room temperature (25 °C), 8 h, high nominal conc. (7.00; 44.37; 4.50; 31.25 µg/mL), n = 6): 7.17 ± 0.21 µg/mL
- Accuracy Bias 8 h ([3]; room temperature (25 °C), 8 h, low nominal conc.): 5.46%
- Observed Conc. 8 h ([3]; room temperature (25 °C), 8 h, low nominal conc. (1.75; 11.02; 1.12; 1.95 µg/mL), n = 6): 1.65 ± 0.10 µg/mL
- Accuracy Bias 8 h ([3]; room temperature (25 °C), 8 h, medium nominal conc.): −4.97%
- Accuracy Bias 24 h ([3]; room temperature (25 °C), 24 h, high nominal conc.): −3.93%
- Observed Conc. 24 h ([3]; room temperature (25 °C), 24 h, high nominal conc. (7.00; 44.37; 4.50; 31.25 µg/mL), n = 6): 7.13 ± 0.24 µg/mL
- Accuracy Bias 24 h ([3]; room temperature (25 °C), 24 h, low nominal conc.): 0.33%
- Observed Conc. 24 h ([3]; room temperature (25 °C), 24 h, low nominal conc. (1.75; 11.02; 1.12; 1.95 µg/mL), n = 6): 1.64 ± 0.10 µg/mL
- Accuracy Bias 24 h ([3]; room temperature (25 °C), 24 h, medium nominal conc.): 2.93%
- Accuracy Bias Autosampler (4 °C; 8 h) [3, 4]: −1.17%
- Accuracy Bias Long-term (−70°C; 1 month) [3, 4]: −1.56%
- Observed Conc. Autosampler (4 °C; 8 h) [3, 5]: 7.08 ± 0.34 µg/mL
- Observed Conc. Long-term (−70 °C; 1 month) [3, 5]: 7.10 ± 0.38 µg/mL
- Accuracy Bias Autosampler (4 °C; 8 h) [3, 6]: −6.41%
- Accuracy Bias Long-term (−70°C; 1 month) [3, 6]: 2.92%
- Observed Conc. Autosampler (4 °C; 8 h) [3, 7]: 1.86 ± 0.19 µg/mL
- Observed Conc. Long-term (−70 °C; 1 month) [3, 7]: 1.69 ± 0.12 µg/mL
- Accuracy Bias Autosampler (4 °C; 8 h) [3, 8]: 1.58%
- Accuracy Bias Long-term (−70°C; 1 month) [3, 8]: −0.45%
